In US20120165310A1, “ETHER DERIVATIVES OF BICYCLIC HETEROARYLS” (NOVARTIS AG, priority 2009, published 2012) one finds IC50 data, which are given here for 29 compounds.

This experiment deals with T1, IGF-1R (Homo sapiens, UniProt P08069).
T1 construct: expressed in transfected cells; host or cells: Hek293 (Hek293-IGF1R)
T1 sequence (P08069 31-1367): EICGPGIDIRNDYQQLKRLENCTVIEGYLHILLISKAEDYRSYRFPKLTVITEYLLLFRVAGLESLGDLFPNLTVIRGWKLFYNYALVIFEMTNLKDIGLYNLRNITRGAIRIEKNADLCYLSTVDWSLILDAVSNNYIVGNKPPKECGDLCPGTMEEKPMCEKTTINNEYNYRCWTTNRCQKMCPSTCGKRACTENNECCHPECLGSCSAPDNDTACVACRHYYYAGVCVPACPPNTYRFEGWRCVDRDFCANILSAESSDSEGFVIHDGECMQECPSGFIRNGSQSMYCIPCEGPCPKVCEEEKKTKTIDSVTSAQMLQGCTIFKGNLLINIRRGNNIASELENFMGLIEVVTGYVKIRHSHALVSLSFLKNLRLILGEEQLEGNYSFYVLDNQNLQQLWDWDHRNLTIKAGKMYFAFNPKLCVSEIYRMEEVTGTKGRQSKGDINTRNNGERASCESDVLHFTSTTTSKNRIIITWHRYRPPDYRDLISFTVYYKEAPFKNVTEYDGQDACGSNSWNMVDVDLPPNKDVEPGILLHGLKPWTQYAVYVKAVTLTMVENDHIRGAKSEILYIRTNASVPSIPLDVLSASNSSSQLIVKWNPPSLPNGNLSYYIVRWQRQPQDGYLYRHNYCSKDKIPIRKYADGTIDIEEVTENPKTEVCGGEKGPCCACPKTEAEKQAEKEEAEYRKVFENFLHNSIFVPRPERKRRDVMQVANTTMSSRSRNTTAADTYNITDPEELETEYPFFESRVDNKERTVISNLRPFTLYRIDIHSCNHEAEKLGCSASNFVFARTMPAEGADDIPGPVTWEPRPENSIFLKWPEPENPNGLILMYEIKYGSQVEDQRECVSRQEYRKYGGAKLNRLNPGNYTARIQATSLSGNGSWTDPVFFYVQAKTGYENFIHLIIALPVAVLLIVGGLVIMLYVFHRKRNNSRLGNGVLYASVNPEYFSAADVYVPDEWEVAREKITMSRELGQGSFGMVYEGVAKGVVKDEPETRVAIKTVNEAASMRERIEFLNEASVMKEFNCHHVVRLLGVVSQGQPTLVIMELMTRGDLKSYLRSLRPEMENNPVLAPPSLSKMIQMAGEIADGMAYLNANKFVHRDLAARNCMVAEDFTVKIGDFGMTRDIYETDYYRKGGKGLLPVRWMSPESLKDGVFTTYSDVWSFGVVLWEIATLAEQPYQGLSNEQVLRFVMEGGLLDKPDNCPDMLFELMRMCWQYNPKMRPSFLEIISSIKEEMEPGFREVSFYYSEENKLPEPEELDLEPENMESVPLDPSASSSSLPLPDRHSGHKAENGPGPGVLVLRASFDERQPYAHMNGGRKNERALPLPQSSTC
Description: Cellular IGF-1R assay: capture ELISA (MSD) of receptor phosphorylation in Hek293 cells. Format: cell-based. The conditions noted are these: Hek293-IGF1R cells, 1 h pre-incubation, 10 min IGF stimulation, pIGF1R capture ELISA. The procedure, abridged: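 IC50 from 4-parameter fit of IGF1R phosphorylation, normalised to IGF-stimulated and unstimulated controls, measured by MSD capture ELISA on lysates. Hek293-IGF1R cells in starvation medium got compound 1 h (top 10 μM, 3-fold steps, 0.1% DMSO) before a 10 min pulse of 1.0 ng/μL IGF.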
The compound `CC1(C)CCC(COc2cccc(-c3cn(C4CC(CN5CCC(O)C5)C4)c4ncnc(N)c34)c2)O1` [Example 57, (S)-1-(3-{4-amino-5-[3-(5,5-dimethyl-tetrahydro-furan-2-ylmethoxy)-phenyl]-5 pyrrolo[2,3-d]pyrimidin-7-yl}-cyclobutylmethyl)-pyrrolidin-3-ol] yielded an IC50 of 15 nM. This counts as double-digit nanomolar.

The compound `Nc1ncnc2c1c(-c1cccc(OCC34CCC(CC3)O4)c1)cn2[C@H]1CC[C@@H](CN2CC[C@@H](O)C2)CC1` [Example 124] had an IC50 of 25 nM.

Consider `Cc1cccc(NC[C@H]2C[C@@H](n3cc(-c4cccc(OCC56CCC(CC5)O6)c4)c4c(N)ncnc43)C2)n1` (relative stereo) [Example 194, 7-{cis-3-[(6-Methyl-pyridin-2-ylamino)-methyl]-cyclobutyl}-5-[3-(7-oxa-bicyclo[2.2.1]hept-1-ylmethoxy)-phenyl]-7H-pyrrolo[2,3-d]pyrimidin-4-ylamine], for which the IC50 was 83 nM. This IC50 is about 3.3-fold higher than that of the compound before.

On to `NC(=O)[C@H]1CCCN1C[C@H]1C[C@@H](n2cc(-c3cccc(OCC4CCCCO4)c3)c3c(N)ncnc32)C1` (stereo partly drawn) [Example 29, (R)-1-(cis-3-{4-amino-5-[3-(tetrahydro-pyran-2-ylmethoxy)-phenyl]-pyrrolo[2,3-d]pyrimidin-7-yl}-cyclobutylmethyl)-pyrrolidine-2-carboxylic acid amide], for which the IC50 lay in the range of 149 to 152 nM.

In turn, `CC1(C)CCC(COc2cccc(-c3cn([C@H]4C[C@@H](CN5CCC(F)(F)CC5)C4)c4ncnc(N)c34)c2)O1` (single isomer, unassigned) [Example 54] showed an IC50 of 45 to 120 nM.

In turn, `Nc1ncnc2c1c(-c1cccc(OCC34CCC(CC3)O4)c1)cn2C1CC(O)(CN2CCC(O)CC2)C1` (centres unmarked) [Example 192, 1-(3-{4-Amino-5-[3-(7-oxa-bicyclo[2.2.1]hept-1-ylmethoxy)-phenyl]-pyrrolo[2,3-d]pyrimidin-7-yl}-1-hydroxy-cyclobutylmethyl)-piperidin-4-ol] registered an IC50 of 63 nM.

In the case of `Nc1nccn2c1c(-c1cccc(OCC34CCC(CC3)O4)c1)nc2[C@H]1C[C@@H](N2CCC(O)CC2)C1` [Example 187], inhibition was half-maximal at 128 nM (IC50).

In turn, `Nc1ncnc2c1c(-c1cccc(OCC34CCC(CC3)O4)c1)cn2C1CC(CN2CC3CC2C[S+]3[O-])C1` (single isomer, unassigned) [Example 228] displayed an IC50 of 10 to 15 nM.

Turning to `Nc1ncnc2c1c(-c1cccc(OCC34CCC(CC3)O4)c1)cn2[C@H]1CC[C@@H](NC(=O)C2CCC2)CC1` [Example 142, N-((1S,4S)-4-(5-(3-(7-oxabicyclo[2.2.1]heptan-1-ylmethoxy)phenyl)-4-amino-7H-pyrrolo[2,3-d]pyrimidin-7-yl)cyclohexyl)cyclobutanecarboxamide], the IC50 was found to be 54 nM.

In turn, `Nc1ncnc2c1c(-c1cccc(OCC34CCC(CC3)O4)c1)cn2[C@H]1CC[C@@H](CN2CCOCC2)CC1` [Example 130] displayed an IC50 of 45 nM.

For the compound `[2H]C([2H])(Oc1cccc(-c2cn([C@H]3C[C@@H](CN4CCS(=O)(=O)CC4)C3)c3ncnc(N)c23)c1)C12CCC(CC1)O2` [Example 159, d2-7-[cis-3-(1,1-dioxo-1-thiomorpholin-4-ylmethyl)-cyclobutyl]-5-[3-(7-oxa-bicyclo[2.2.1]hept-1-ylmethoxy)-phenyl]-7H-pyrrolo[2,3-d]pyrimidin-4-ylamine], the IC50 lay within 7 to 14 nM.

In turn, `Nc1ncnc2c1c(-c1cccc(OCC3CCCCO3)c1)cn2[C@H]1C[C@@H](CN2CCC(F)CC2)C1` (relative stereo) [Example 32, 7-[cis-3-(4-fluoro-piperidin-1-ylmethyl)-cyclobutyl]-5-[3-(tetrahydro-pyran-2-ylmethoxy)-phenyl]-7H-pyrrolo[2,3-d]pyrimidin-4-ylamine] showed an IC50 of 309 nM.

In turn, `Cc1nccn1C[C@H]1C[C@@H](n2cc(-c3cccc(OCC4CCCCO4)c3)c3c(N)ncnc32)C1` (relative stereo) [Example 154, 7-[cis-3-(2-methyl-imidazol-1-ylmethyl)-cyclobutyl]-5-[3-(tetrahydro-pyran-2-ylmethoxy)-phenyl]-7H-pyrrolo[2,3-d]pyrimidin-4-ylamine] showed an IC50 of 71 nM. This IC50 is about 4.4-fold lower than that of the compound before.

In turn, `CC1(C(N)=O)CCCN1CC1CC(n2cc(-c3cccc(OCC45CCC(CC4)O5)c3)c3c(N)ncnc32)C1` [Example 101, (S)-1-(((1S,3R)-3-(5-(3-(7-oxabicyclo[2.2.1]heptan-1-ylmethoxy)phenyl)-4-amino-7H-pyrrolo[2,3-d]pyrimidin-7-yl)cyclobutyl)methyl)-2-methylpyrrolidine-2-carboxamide] yielded an IC50 of 8 nM.

As to `NC(=O)[C@H]1CCCN1C[C@H]1C[C@H](n2cc(-c3cccc(OCC4CCCO4)c3)c3c(N)ncnc32)C1` (stereo partly drawn) [Example 87, (R)-1-(trans-3-(4-amino-5-[3-(tetrahydro-furan-2-ylmethoxy)-phenyl]-pyrrolo[2,3-d]pyrimidin-7-yl}-cyclobutylmethyl)-pyrrolidine-2-carboxylic acid amide], inhibition was half-maximal at 116 nM (IC50).

As for `NC(=O)C1CC(F)CN1CC1CC(n2cc(-c3cccc(OCC4CCCCO4)c3)c3c(N)ncnc32)C1` [Example 97, (2S,4S)-1-(((1S,3R)-3-(4-amino-5-(3-((tetrahydro-2H-pyran-2-yl)methoxy)phenyl)-7H-pyrrolo[2,3-d]pyrimidin-7-yl)cyclobutyl)methyl)-4-fluoropyrrolidine-2-carboxamide], inhibition was half-maximal at 105 nM (IC50).

`Nc1ncnc2c1c(-c1cccc(OCC34CCC(CC3)O4)c1)cn2[C@H]1CC[C@@H](CN2CCNCC2)CC1` [Example 136, 5-(3-(7-oxabicyclo[2.2.1]heptan-1-ylmethoxy)phenyl)-7-((1S,4S)-4-(piperazin-1-ylmethyl)cyclohexyl)-7H-pyrrolo[2,3-d]pyrimidin-4-amine]: 597 nM corresponded to half-maximal inhibition (IC50).

`CN1CCN(C[C@]2(O)C[C@@H](n3cc(-c4cccc(OCC56CCC(CC5)O6)c4)c4c(N)ncnc43)C2)CC1` [Example 123, (Z)-3-{4-Amino-5-[3-(7-oxa-bicyclo[2.2.1]hept-1-ylmethoxy)-phenyl]-pyrrolo[2,3-d]pyrimidin-7-yl}-1-(4-methyl-piperazin-1-ylmethyl)-cyclobutanol] gave an IC50 of 69 nM.

Compound `Nc1ncnc2c1c(-c1cccc(OCC34CCC(CC3)O4)c1)cn2C1CCC2(CC1)CNC(=O)O2` (centres unmarked) [Example 139, 8-(5-(3-(7-oxabicyclo[2.2.1]heptan-1-ylmethoxy)phenyl)-4-amino-7H-pyrrolo[2,3-d]pyrimidin-7-yl)-1-oxa-3-azaspiro[4.5]decan-2-one] registered an IC50 of 543 nM.

In turn, `NC(=O)[C@@H]1CCCN1C[C@H]1C[C@@H](n2cc(-c3cccc(OC[C@H]4CCCCO4)c3)c3c(N)ncnc32)C1` [Example 43, (S)-1-[3-(4-amino-5-{3-[(R)-1-(tetrahydro-pyran-2-yl)methoxy]-phenyl}-pyrrolo[2,3-d]pyrimidin-7-yl)-cyclobutylmethyl]-pyrrolidine-2-carboxylic acid amide] gave an IC50 of 4 to 22 nM.

The compound `Nc1ncnc2c1c(-c1cccc(OCC34CCC(CC3)O4)c1)cn2C1CC(N2CCN(CCO)CC2)C1` (centres unmarked) [Example 170, 2-[4-(3-{4-amino-5-[3-(7-oxa-bicyclo[2.2.1]hept-1-ylmethoxy)-phenyl]-pyrrolo[2,3-d]pyrimidin-7-yl}-cyclobutyl)-piperazin-1-yl]-ethanol] came in with an IC50 of 44 nM.

For `CC1(C)CCC(COc2cccc(-c3cn([C@H]4CC[C@@H](N5CCOCC5)CC4)c4ncnc(N)c34)c2)O1` (relative stereo) [Example 65, 5-[3-(5,5-dimethyl-tetrahydro-furan-2-ylmethoxy)-phenyl]-7-(cis-4-morpholin-4-yl-cyclohexyl)-7H-pyrrolo[2,3-d]pyrimidin-4-ylamine], the IC50 is 128 nM. This IC50 is about 2.9-fold higher than that of the compound before.

For `CS(=O)(=O)NCC1CC(n2cc(-c3cccc(OCC45CCC(CC4)O5)c3)c3c(N)ncnc32)C1` (centres unmarked) [Example 167, N-(3-{4-amino-5-[3-(7-oxa-bicyclo[2.2.1]hept-1-ylmethoxy)-phenyl]-pyrrolo[2,3-d]pyrimidin-7-yl}-cyclobutylmethyl)-methanesulfonamide], the IC50 stood at 167 nM.

Take `Nc1ncnc2c1c(-c1cccc(OCC34CCC(CC3)O4)c1)cn2C1CCC(N2CCC(O)C2)CC1` [Example 127, (S)-1-((1S,4S)-4-(5-(3-(7-oxabicyclo[2.2.1]heptan-1-ylmethoxy)phenyl)-4-amino-7H-pyrrolo[2,3-d]pyrimidin-7-yl)cyclohexyl)pyrrolidin-3-ol]: inhibition was half-maximal at 374 nM (IC50).

In turn, `Nc1ncnc2c1c(-c1cccc(OCC34CCC(CC3)O4)c1)cn2C1CC(O)(CN2CCC(O)C2)C1` (single isomer, unassigned) [Example 204] came in with an IC50 of 53 nM.

In the case of `Nc1ncnc2c1c(-c1cccc(OCC34CCC(CC3)O4)c1)cn2C1CC(O)(CN2CCCC2CO)C1` (single isomer, unassigned) [Example 200], the IC50 was 263 nM.

Consider `Nc1ncnc2c1c(-c1cccc(OCC34CCC(CC3)O4)c1)cn2[C@H]1C[C@@H](N2CC(O)C2)C1` (relative stereo) [Example 191, 1-(cis-3-{4-Amino-5-[3-(7-oxa-bicyclo[2.2.1]hept-1-ylmethoxy)-phenyl]-pyrrolo[2,3-d]pyrimidin-7-yl}-cyclobutyl)-azetidin-3-ol], for which the midpoint of inhibition, the IC50, lay at 138 nM.

Turning to `NC(=O)C1CC(F)CN1CC1CC(n2cc(-c3cccc(OCC4CCCCO4)c3)c3c(N)ncnc32)C1` [Example 94, (2S,4R)-1-(((1 S,3R)-3-(4-amino-5-(3-((tetrahydro-2H-pyran-2-yl)methoxy)phenyl)-7H-pyrrolo[2,3-d]pyrimidin-7-yl)cyclobutyl)methyl)-4-fluoropyrrolidine-2-carboxamide], half-maximal inhibition (IC50) was put at 85 nM.

In turn, `Nc1ncnc2c1c(-c1cccc(OCC34CCC(CC3)O4)c1)cn2C1CN(C2CS(=O)(=O)C2)C1` [Example 224, 7-[1-(1,1-dioxo-thietan-3-yl)-azetidin-3-yl]-5-[3-(7-oxa-bicyclo[2.2.1]hept-1-ylmethoxy)-phenyl]-7H-pyrrolo[2,3-d]pyrimidin-4-ylamine] gave an IC50 of 518 nM.

The IC50 is the concentration that gives 50% inhibition. Low readings indicate greater potency, high ones weaker potency.
